Where two headings read alike, the source gives them in different places.
Columns and labels:
[1] = Compound stability in mouse plasma; assay type: in vitro ADME; conditions: serum (method text and assay name say plasma), 37° C., pH 7.4
Procedure: (§1) Compounds were assayed for stability in mouse and rat plasma under the following conditions. Plasma was adjusted to pH 7.4. DMSO stocks at 10 mM concentration were prepared for the test compounds. Aliquots of the DMSO solutions were dosed into 1 mL of plasma, which had been pre-warmed to 37° C., at a final test compound concentration of 10 μM. The vials were kept in a benchtop Thermomixer® (Eppendorf, Hauppauge, N.Y.) for the duration of the experiment. Aliquots (100 μL) were taken at each timepoint and added to a 96-well plate that had been pre-filled with 300 μL of an acetonitrile solution containing mixture of the internal standards (metoprolol, propranalol and warfarin each at 500 ng/mL). Samples were stored at 4° C. until the end of the experiment. After the final timepoint was sampled, the plate was mixed and then centrifuged at 3,000 rpm for 10 minutes. Aliquots of the supernatant were removed and analyzed by LC-HRAMS.

[2] = Compound stability in rat plasma; assay type: in vitro ADME; conditions: serum (method text and assay name say plasma), 37° C., pH 7.4
Procedure: as §1

[3] = system: GMPPNP-loaded H-Ras or GTP-loaded K-Ras; experiment: Fluorescence polarization competition assay with TAMRA-labeled probe R4007; assay type: binding, human; conditions: 120 nM Ras
In short: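 120 nM GMPPNP-loaded H-Ras or GTP-loaded K-Ras was preincubated with 30 nM TAMRA-labeled R4007 probe for 20 min at room temperature in Tris pH 7.5 buffer with MgCl2, EDTA and Triton X-100. Serially diluted competitor was then added for 60 min. Polarization was read at 535/595 nm, with Ki from a one-site Ki fit and IC50 from probe displacement.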

- half-life at 10 μM [1]: 5 h
- half-life at 10 μM [2]: 2.1 h
- IC50 ([3]; 30 nM R4007, FIG. 7B, read-out: half-maximal inhibitory concentration (IC50) for displacement of R4007): 20 nM
- IC50 ([3]; 30 nM probe R4007, 60 minutes at room temperature, read-out: Probe displacement (nM IC50)): 28.6 nM
SMILES: CCC[C@H](NC(C)=O)C(=O)N[C@H]1CSCc2cccc(c2)CSC[C@@H](C(N)=O)NC(=O)CN(C)C(=O)[C@H](Cc2ccc(F)cc2)N(C)C(=O)[C@H](Cc2ccc(O)cc2)NC(=O)[C@H](Cc2c[nH]c3ncccc23)NC(=O)[C@H](c2ccccc2)NC(=O)[C@H](C)N(C)C(=O)[C@H](Cc2cnc[nH]2)NC(=O)[C@H](CCCCN)NC(=O)[C@H](C(C)(C)C)NC(=O)[C@H](Cc2ccc(O)cc2)NC1=O (relative stereo) [Compound R4000, ACE-NVA-CYS*-TYR-TBG-LYS-HIS-NMA-PHG-7AW-TYR-MFF-SAR-CYS*-NH2]
